Results as given in patent US4382089A, “Antibacterial amide compounds, compositions thereof and methods of using them” (Warner-Lambert Company, priority 1982, dated 1983).

What was measured:
Assay in all cases: Antibacterial activity in vitro, Minimal Inhibitory Concentration
Format in all cases: cell-based
Entero C. IMM-11 = tested on: Entero C. IMM-11
Excerpt: (§1) The compounds of the invention are new chemical compounds that are used as pharmacological agents and especially as broad spectrum antibacterial agents. They are active in vitro against strains of both gram-positive and gram-negative bacteria. The activity of the compounds is illustrated by the results shown in the table for certain of the preferred compounds.

E. Coli Vogel = tested on: E. Coli Vogel
Excerpt: as §1

Klebs. Pneu. MGH-2 = tested on: Klebs. Pneu. MGH-2
Excerpt: as §1

Staph Aureus UC-76 = tested on: Staph Aureus UC-76
Excerpt: as §1

Pseudo. Aeru UI-18 = tested on: Pseudo. Aeru UI-18
Excerpt: as §1

Pseudo. Aeru 28 = tested on: Pseudo. Aeru 28
Excerpt: as §1

Prot. Vulg. 1810 = tested on: Prot. Vulg. 1810
Excerpt: as §1

Pseudo. Aeru BRK = tested on: Pseudo. Aeru BRK
Excerpt: as §1

Serr. Mar. IMM-16 = tested on: Serr. Mar. IMM-16
Excerpt: as §1

E. Coli Brig = tested on: E. Coli Brig
Excerpt: as §1

Compound | Minimal Inhibitory Concentration (Entero C. IMM-11) [µg/mL] | Minimal Inhibitory Concentration (E. Coli Vogel) [µg/mL] | Minimal Inhibitory Concentration (Klebs. Pneu. MGH-2) [µg/mL] | Minimal Inhibitory Concentration (Staph Aureus UC-76) [µg/mL] | Minimal Inhibitory Concentration (Pseudo. Aeru UI-18) | Minimal Inhibitory Concentration (Pseudo. Aeru 28) [µg/mL] | Minimal Inhibitory Concentration (Prot. Vulg. 1810) [µg/mL] | Minimal Inhibitory Concentration (Pseudo. Aeru BRK) [µg/mL] | Minimal Inhibitory Concentration (Serr. Mar. IMM-16) [µg/mL] | Minimal Inhibitory Concentration (E. Coli Brig) [µg/mL]
CC1(C)SC2C(NC(=O)C(NC(=O)c3c[nH]c4ccc(NC(=O)C5CCC(=O)N5)cc4c3=O)c3ccc(O)cc3)C(=O)N2C1C(=O)O (stereo not drawn) [N-[1,4-Dihydro-4-oxo-6[[(5-oxo-2-pyrrolidinyl)carbonyl]-amino]-3-quinolinylcarbonyl]amoxicillin] | 3.1 | 1.6 | 12.5 | 1.6 | 1.6 µg/mL | 3.1 | 1.6 | 3.1 | 6.3 | 6.3
CC1(C)SC2C(NC(=O)C(NC(=O)c3c[nH]c4c(NC(=O)C5CCC(=O)N5)cccc4c3=O)c3ccc(O)cc3)C(=O)N2C1C(=O)O (stereo not drawn) [N-[1,4-Dihydro-4-oxo-8-[[(5-oxo-2-pyrrolidinyl)carbonyl]-amino]-3-quinolinylcarbonyl]amoxicillin] | 6.3 | 3.1 | 12.5 | 1.6 | 3.1 µg/mL | 0.8 | 3.1 | 1.6 | 12.5 | 6.3
CC1(C)S[C@@H]2[C@H](NC(=O)[C@H](NC(=O)c3cc4cc(NC(=O)NCC(N)=O)ccc4[nH]c3=O)c3ccc(O)cc3)C(=O)N2[C@H]1C(=O)O [N-[3-[1,2-dihydro-2-oxo-6-(5-oxo-2-pyrrolidinyl)amino]-quinolinylcarbonyl]amoxicillin] | 3.1 | – | – | 1.6 | – | 1.6 | – | 1.6 | – | –
CC(=O)NC(C)C(=O)Nc1ccc2[nH]cc(C(=O)NC(C(=O)NC3C(=O)N4C3SC(C)(C)C4C(=O)O)c3ccc(O)cc3)c(=O)c2c1 (stereo not drawn) [N-[6-[[2-(Acetylamino)-1-oxopropyl]amino]-1,4-dihydro-4-oxo-3-quinolinylcarbonyl]amoxicillin] | 3.1 | 0.4 | 6.3 | 1.6 | 1.6 µg/mL | 0.4 | 0.8 | 1.6 | 3.1 | 3.1
CC(=O)N1CCCC1C(=O)Nc1ccc2[nH]c(=O)c(C(=O)NC(C(=O)NC3C(=O)N4C3SC(C)(C)C4C(=O)O)c3ccc(O)cc3)cc2c1 (stereo not drawn) [N-[6-[[(1-Acetyl-2-pyrrolidinyl)carbonyl]amino]-1,2-dihydro-2-oxo-3-quinolinylcarbonyl]amoxicillin] | 3.1 | 0.2 | 25 | 0.8 | 1.6 µg/mL | 1.6 | 0.8 | 1.6 | 12.5 | 3.1
CC(=O)N1CCCC1C(=O)Nc1ccc2[nH]cc(C(=O)NC(C(=O)NC3C(=O)N4C3SC(C)(C)C4C(=O)O)c3ccc(O)cc3)c(=O)c2c1 (stereo not drawn) [N-[6-[[(1-Acetyl-2-pyrrolidinyl)carbonyl]amino]-1,4-dihydro-4-oxo-3-quinolinylcarbonyl]amoxicillin] | 6.3 | 0.2 | 6.3 | 3.1 | 3.1 µg/mL | 3.1 | 0.8 | 3.1 | 6.3 | 6.3
CC(=O)N1CC(O)CC1C(=O)Nc1ccc2[nH]c(=O)c(C(=O)NC(C(=O)NC3C(=O)N4C3SC(C)(C)C4C(=O)O)c3ccc(O)cc3)cc2c1 (stereo not drawn) [N-[6-[[(1-Acetyl-4-hydroxy-2-pyrrolidinyl)carbonyl]-amino]-1,2-dihydro-2-oxo-3-quinolinylcarbonyl]amoxicillin] | 6.3 | 6.3 | 25 | 0.8 | 1.6 µg/mL | 1.6 | 3.1 | 3.1 | 25 | 12.5
CC(=O)NC(C)C(=O)Nc1ccc2[nH]c(=O)c(C(=O)NC(C(=O)NC3C(=O)N4C3SC(C)(C)C4C(=O)O)c3ccc(O)cc3)cc2c1 (stereo not drawn) [N-[6-[[(2-Acetylamino)-1-oxopropyl]amino]-1,2-dihydro-2-oxo-3-quinolinylcarbonyl]amoxicillin] | 6.3 | 1.6 | 12.5 | 1.6 | 1.6 µg/mL | 1.6 | 3.1 | 1.6 | 12.5 | 6.3
CC(=O)NC(C)C(=O)Nc1ccc2c(=O)c(C(=O)NC(C(=O)NC3C(=O)N4C3SC(C)(C)C4C(=O)O)c3ccc(O)cc3)c[nH]c2c1 (stereo not drawn) [N-[7-[[2-(Acetylamino)-1-oxopropyl]amino]-1,4-dihydro-4-oxo-3-quinolinylcarbonyl]amoxicillin] | 3.1 | 0.2 | 6.3 | 0.8 | .6 µg/mL | 1.6 | 0.8 | 1.6 | 6.3 | 3.1
CC(=O)N1CC(O)CC1C(=O)Nc1ccc2c(=O)c(C(=O)NC(C(=O)NC3C(=O)N4C3SC(C)(C)C4C(=O)O)c3ccc(O)cc3)c[nH]c2c1 (stereo not drawn) [N-[7-[[(1-Acetyl-4-hydroxy-2-pyrrolidinyl)carbonyl]-amino]-1,4-dihydro-4-oxo-3-quinolinecarbonyl]amoxicillin] | 6.3 | 3.1 | 12.5 | 1.6 | 3.1 µg/mL | 3.1 | 0.8 | 3.1 | 6.3 | 12.5
N-[1,4-Dihydro-4-oxo-7-[[(5-oxo-2-pyrrolidinyl)carbonyl]-amino]-3-quinolinylcarbonyl]amoxicillin | 3.1 | 0.4 | 3.1 | 0.8 | 3.1 µg/mL | 0.8 | 0.8 | 0.4 | 1.6 | 3.1
N-[(-[[2-(Acetylamino)-1-oxopropl]amino]-1,4-dihydro-4-oxo-3-quinolinylcarbonyl]amoxicillin | 12.5 | 3.1 | 12.5 | 1.6 | .1 µg/mL | 0.8 | 3.1 | 3.1 | 12.5 | 12.5
